Results: ChEMBL document CHEMBL1138490, “Gamma-aminobutyric acid amides of nortriptyline and fluoxetine display improved pain suppressing activity” (2009)
The source made the active and inactive calls.

Assays:
Mus musculus [1] = experiment: Anxiolytic activity in BALB/c mouse assessed as velocity at equimolar oral dose relative to 1 mg/kg nortriptyline after 90 mins by open-field test (RVb= 7.07+/-0.51 cm/s); assay type: functional
Mus musculus [2] = experiment: Antinociceptive activity in BALB/c mouse assessed as increase in paw withdrawal latency time at 0.2 mg/kg, po equimolar dose of nortriptyline daily measured after 3 to 5 hrs on day 10 to 12; assay type: functional, organism-based; set-up: dose 0.2 mg/kg
Mus musculus [3] = experiment: Antinociceptive activity in BALB/c mouse assessed as decrease in inhibition of paw withdrawal latency at 0.1 mg/kg, po after by hot plate method; assay type: functional, organism-based; set-up: dose 0.1 mg/kg
Mus musculus [4] = experiment: Antinociceptive activity in BALB/c mouse assessed as decrease in inhibition of paw withdrawal latency at 2.39 mg/kg, po after by hot plate method; assay type: functional, organism-based; set-up: dose 2.39 mg/kg
Mus musculus [5] = experiment: Antinociceptive activity against formalin-induced pain in BALB/c mouse assessed paw licking, biting or shaking at 0.5 mg/kg, po administered 2 hrs before formalin challenge measured after 0 to 5 mins relative to control; assay type: functional, organism-based; set-up: dose 0.5 mg/kg
Mus musculus [6] = experiment: Antinociceptive activity against formalin-induced pain in BALB/c mouse assessed paw licking, biting or shaking at 0.5 mg/kg, po administered 2 hrs before formalin challenge measured after 25 to 35 mins relative to control; assay type: functional, organism-based; set-up: dose 0.5 mg/kg
Mus musculus [7] = experiment: Antinociceptive activity against formalin-induced pain in BALB/c mouse assessed paw licking, biting or shaking at 5 mg/kg, po administered 2 hrs before formalin challenge measured after 0 to 5 mins relative to control; assay type: functional, organism-based; set-up: dose 5 mg/kg
Mus musculus [8] = experiment: Antinociceptive activity against formalin-induced pain in BALB/c mouse assessed paw licking, biting or shaking at 5 mg/kg, po administered 2 hrs before formalin challenge measured after 25 to 35 mins relative to control; assay type: functional, organism-based; set-up: dose 5 mg/kg
Mus musculus [9] = experiment: Antinociceptive activity against formalin-induced pain in BALB/c mouse assessed paw licking, biting or shaking at 0.5 mg/kg, po equimolar dose of nortriptyline administered 2 hrs before formalin challenge measured after 0 to 5 mins relative to control; assay type: functional, organism-based; set-up: dose 0.5 mg/kg
Mus musculus [10] = experiment: Antinociceptive activity against formalin-induced pain in BALB/c mouse assessed paw licking, biting or shaking at 0.5 mg/kg, po equimolar dose of nortriptyline administered 2 hrs before formalin challenge measured after 25 to 35 mins relative to control; assay type: functional, organism-based; set-up: dose 0.5 mg/kg
Mus musculus [11] = experiment: Antinociceptive activity against formalin-induced pain in BALB/c mouse assessed paw licking, biting or shaking at 5 mg/kg, po equimolar dose of nortriptyline administered 2 hrs before formalin challenge measured after 0 to 5 mins relative to control; assay type: functional, organism-based; set-up: dose 5 mg/kg
Mus musculus [12] = experiment: Antinociceptive activity against formalin-induced pain in BALB/c mouse assessed paw licking, biting or shaking at 5 mg/kg, po equimolar dose of nortriptyline administered 2 hrs before formalin challenge measured after 25 to 35 mins relative to control; assay type: functional, organism-based; set-up: dose 5 mg/kg
Mus musculus [13] = experiment: Anxiolytic activity in BALB/c mouse assessed as immobility at equimolar oral dose relative to 1 mg/kg nortriptyline after 90 mins by open-field test (RVb= 458.4+/-41 s); assay type: functional
Mus musculus [14] = experiment: Anxiolytic activity in BALB/c mouse assessed as immobility at equimolar oral dose relative to 5 mg/kg nortriptyline after 90 mins by open-field test (RVb= 458.4+/-41 s); assay type: functional
Mus musculus [15] = experiment: Anxiolytic activity in BALB/c mouse assessed as immobility at equimolar oral dose relative to 15 mg/kg nortriptyline after 90 mins by open-field test (RVb= 458.4+/-41 s); assay type: functional
Mus musculus [16] = experiment: Antiinflammatory activity against formalin-induced BALB/c mouse skin assessed as reduction in TNFalpha level at to 0.5 mg/kg, po; assay type: functional, organism-based; set-up: dose 0.5 mg/kg
Rattus norvegicus [17] = experiment: Antiinflammatory activity against gamma carrageenan-induced paw edema in Wistar rat assessed as reduction in paw volume at 5 mg/kg, po administered 2 hrs before carrageenan challenge measured after 4 hrs relative to control; assay type: functional, organism-based; set-up: dose 5 mg/kg
Rattus norvegicus [18] = experiment: Antiinflammatory activity against gamma carrageenan-induced paw edema in Wistar rat assessed as reduction in paw volume at 5 mg/kg, po equimolar dose of nortriptyline administered 2 hrs before carrageenan challenge measured after 4 hrs relative to control; assay type: functional, organism-based; set-up: dose 5 mg/kg
Rattus norvegicus [19] = experiment: Antiinflammatory activity against gamma carrageenan-induced paw edema in Wistar rat assessed as reduction in paw volume at 5 mg/kg, po administered 2 hrs before carrageenan challenge measured after 24 hrs relative to control; assay type: functional, organism-based; set-up: dose 5 mg/kg
Rattus norvegicus [20] = experiment: Antiinflammatory activity against gamma carrageenan-induced paw edema in Wistar rat assessed as reduction in paw volume at 5 mg/kg, po equimolar dose of nortriptyline administered 2 hrs before carrageenan challenge measured after 24 hrs relative; assay type: functional, organism-based; set-up: dose 5 mg/kg
Rattus norvegicus [21] = experiment: Antiinflammatory activity against gamma carrageenan-induced paw edema in Wistar rat assessed as paw volume at 5 mg/kg, po equimolar dose of nortriptyline administered 2 hrs before carrageenan challenge relative to control; assay type: functional, organism-based; set-up: dose 5 mg/kg
Rattus norvegicus [22] = species: Rattus norvegicus; experiment: Displacement of [3H]muscimol from GABAA receptor in rat cerebral cortex; assay type: tissue-based; conditions: concentration not given here
Rattus norvegicus [23] = species: Rattus norvegicus; experiment: Displacement of [3H]GABA from non selective GABA receptor in rat cerebral cortex; assay type: tissue-based; conditions: concentration not given here
Mus musculus [24] = experiment: Anxiolytic activity in BALB/c mouse assessed as distance moved at equimolar oral dose relative to 5 mg/kg nortriptyline after 90 mins by open-field test (RVb= 8485+/-610 cm); assay type: functional
Mus musculus [25] = experiment: Anxiolytic activity in BALB/c mouse assessed as distance moved at equimolar oral dose relative to 1 mg/kg nortriptyline after 90 mins by open-field test (RVb= 8485+/-610 cm); assay type: functional
Mus musculus [26] = experiment: Anxiolytic activity in BALB/c mouse assessed as distance moved at equimolar oral dose relative to 15 mg/kg nortriptyline after 90 mins by open-field test (RVb= 8485+/-610 cm); assay type: functional
Mus musculus [27] = experiment: Anxiolytic activity in BALB/c mouse assessed as velocity at equimolar oral dose relative to 5 mg/kg nortriptyline after 90 mins by open-field test (RVb= 7.07+/-0.51 cm/s); assay type: functional
Mus musculus [28] = experiment: Anxiolytic activity in BALB/c mouse assessed as velocity at equimolar oral dose relative to 15 mg/kg nortriptyline after 90 mins by open-field test (RVb= 7.07+/-0.51 cm/s); assay type: functional
Mus musculus [29] = experiment: Antinociceptive activity in BALB/c mouse assessed as […] at 0.25 mg/kg, po after 240 mins by hot plate method; assay type: functional, organism-based; set-up: dose 0.25 mg/kg
Mus musculus [30] = experiment: Antinociceptive activity in BALB/c mouse assessed as […] at 4.5 mg/kg, po after 240 mins by hot plate method; assay type: functional, organism-based; set-up: dose 4.5 mg/kg
Mus musculus [31] = experiment: Antinociceptive activity in BALB/c mouse assessed as […] at 0.5 mg/kg, po equimolar dose of nortriptyline after 240 mins by hot plate method; assay type: functional, organism-based; set-up: dose 0.5 mg/kg
Mus musculus [32] = experiment: Antinociceptive activity in BALB/c mouse assessed as […] at 0.25 mg/kg, po equimolar dose of nortriptyline after 240 mins by hot plate method; assay type: functional, organism-based; set-up: dose 0.25 mg/kg
Mus musculus [33] = experiment: Antinociceptive activity in BALB/c mouse assessed as […] at 4.5 mg/kg, po equimolar dose of nortriptyline after 240 mins by hot plate method; assay type: functional, organism-based; set-up: dose 4.5 mg/kg
Mus musculus [34] = experiment: Antinociceptive activity in BALB/c mouse assessed as […] at 10 mg/kg, po after 240 mins by hot plate method; assay type: functional, organism-based; set-up: dose 10 mg/kg
Mus musculus [35] = experiment: Antinociceptive activity in BALB/c mouse assessed as paw withdrawal latency at 0.4 mg/kg, po after 2 to 4 hrs by hot plate method; assay type: functional, organism-based; set-up: dose 0.4 mg/kg
Mus musculus [36] = experiment: Antinociceptive activity in BALB/c mouse assessed as paw withdrawal latency at 0.4 mg/kg, po equimolar dose of nortriptyline after 2 to 4 hrs by hot plate method; assay type: functional, organism-based; set-up: dose 0.4 mg/kg
Mus musculus [37] = experiment: Antinociceptive activity in BALB/c mouse assessed as increase in paw withdrawal latency time at 0.2 mg/kg, po daily for 12 days measured after 3 to 5 hrs on day 1; assay type: functional, organism-based; set-up: dose 0.2 mg/kg
Mus musculus [38] = experiment: Antinociceptive activity in BALB/c mouse assessed as increase in paw withdrawal latency time at 0.2 mg/kg, po equimolar dose of nortriptyline daily measured after 3 to 5 hrs on day 1; assay type: functional, organism-based; set-up: dose 0.2 mg/kg
Mus musculus [39] = experiment: Antinociceptive activity in BALB/c mouse assessed as increase in paw withdrawal latency time at 0.2 mg/kg, po equimolar dose of nortriptyline daily measured after 3 to 5 hrs on day 3 to 12; assay type: functional, organism-based; set-up: dose 0.2 mg/kg
Mus musculus [40] = experiment: Antiinflammatory activity against formalin-induced BALB/c mouse skin assessed as reduction in TNFalpha level at 50 mg/kg, ip; assay type: functional, organism-based; set-up: dose 50 mg/kg
Rattus norvegicus [41] = experiment: Antiinflammatory activity against gamma carrageenan-induced paw edema in Wistar rat assessed as reduction in paw volume at 50 mg/kg, ip administered 2 hrs before carrageenan challenge measured after 4 hrs relative to control; assay type: functional, organism-based; set-up: dose 50 mg/kg
Rattus norvegicus [42] = experiment: Antiinflammatory activity against gamma carrageenan-induced paw edema in Wistar rat assessed as reduction in paw volume at 50 mg/kg, ip administered 2 hrs before carrageenan challenge measured after 24 hrs relative to control; assay type: functional, organism-based; set-up: dose 50 mg/kg
Rattus norvegicus [43] = experiment: Antiinflammatory activity against gamma carrageenan-induced paw edema in Wistar rat assessed as paw volume at 50 mg/kg, ip administered 2 to 4 hrs before carrageenan challenge relative to control; assay type: functional, organism-based; set-up: dose 50 mg/kg

CN(CCC=C1c2ccccc2CCc2ccccc21)C(=O)CCCN.Cl [BL-1021]
11%: inhibition (Rattus norvegicus [22])
active: Activity (Mus musculus [2]) | Activity (Mus musculus [3]) | Activity (Mus musculus [4]) | Activity (Mus musculus [5]) | Activity (Mus musculus [6]) | Activity (Mus musculus [7]) | Activity (Mus musculus [8]) | Activity (Mus musculus [9]) | Activity (Mus musculus [10]) | Activity (Mus musculus [11]) | Activity (Mus musculus [12]) | Activity (Mus musculus [16]) | Activity (Rattus norvegicus [21]) | Activity (Mus musculus [29]) | Activity (Mus musculus [30]) | Activity (Mus musculus [31]) | Activity (Mus musculus [32]) | Activity (Mus musculus [33]) | Activity (Mus musculus [34]) | Activity (Mus musculus [35]) | Activity (Mus musculus [36]) | Activity (Mus musculus [37]) | Activity (Mus musculus [38]) | Activity (Mus musculus [39])
inactive: Activity (Rattus norvegicus [17]) | Activity (Rattus norvegicus [18]) | Activity (Rattus norvegicus [19]) | Activity (Rattus norvegicus [20])
467.9 s: Activity (Mus musculus [14])
6%: inhibition (Rattus norvegicus [23])
8053 cm: Activity (Mus musculus [25])
572.8 s: Activity (Mus musculus [15])
447.2 s: Activity (Mus musculus [13])
8157 cm: Activity (Mus musculus [24])
6.18 cm/s: Activity (Mus musculus [28])
7413 cm: Activity (Mus musculus [26])
6.85 cm/s: Activity (Mus musculus [27])
6.72 cm/s: Activity (Mus musculus [1])

CNCCC=C1c2ccccc2CCc2ccccc21
active: Activity (Mus musculus [5]) | Activity (Mus musculus [6]) | Activity (Mus musculus [7]) | Activity (Mus musculus [8]) | Activity (Mus musculus [9]) | Activity (Mus musculus [10]) | Activity (Mus musculus [11]) | Activity (Mus musculus [12]) | Activity (Mus musculus [16]) | Activity (Rattus norvegicus [21]) | Activity (Mus musculus [29]) | Activity (Mus musculus [30]) | Activity (Mus musculus [31]) | Activity (Mus musculus [32]) | Activity (Mus musculus [33])

NCC1(CC(=O)O)CCCCC1
inactive: Activity (Rattus norvegicus [41]) | Activity (Rattus norvegicus [42])
active: Activity (Mus musculus [16]) | Activity (Mus musculus [40]) | Activity (Rattus norvegicus [43])

CNCCC(Oc1ccc(C(F)(F)F)cc1)c1ccccc1 (stereo not given)
active: Activity (Mus musculus [34])
